For 14 compounds, IC50 results are on record in patent US10428044B2, “3-amino-1,5,6,7-tetrahydro-4H-indol-4-ones” (Bayer Pharma Aktiengesellschaft, priority 2014, dated 2019).

Sequence of (recombinant) catalytic domain of human Bub1 (amino acids 704-1085) (O43683 704-1085): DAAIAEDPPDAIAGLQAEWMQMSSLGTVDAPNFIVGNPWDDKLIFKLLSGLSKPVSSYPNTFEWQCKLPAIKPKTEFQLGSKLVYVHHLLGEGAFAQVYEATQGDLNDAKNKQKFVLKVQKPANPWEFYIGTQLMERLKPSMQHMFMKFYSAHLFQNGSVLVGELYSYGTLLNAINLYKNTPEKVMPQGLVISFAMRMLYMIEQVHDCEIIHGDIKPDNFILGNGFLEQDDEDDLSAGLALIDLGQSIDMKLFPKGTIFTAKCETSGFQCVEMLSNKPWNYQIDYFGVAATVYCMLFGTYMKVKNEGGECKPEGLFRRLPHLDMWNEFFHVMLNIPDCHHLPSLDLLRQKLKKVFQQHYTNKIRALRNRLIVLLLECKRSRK

The experiment addresses (recombinant) catalytic domain of human Bub1 (amino acids 704-1085) (Homo sapiens (Human), UniProt O43683). Put plainly: Bub1 kinase assay (TR-FRET). The following applies: ATP 10 μM final, peptide substrate 1 μM final, 60 min at 22° C., read-out: Biological Assay: Bub1 kinase assay median IC50. In kind it is biochemical. A digest of the protocol: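 Readout was TR-FRET between a Eu-labeled antibody complex recognizing phosphoserine and streptavidin-XL665 on the biotinylated peptide, after EDTA stop and 1 h at 22° C. The kinase reaction ran for 60 min at 22° C. Values are means or medians of repeat tests, from 4-parameter fits normalized to enzyme-free and inhibitor-free controls.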
(In TR-FRET formats the signal depends on donor and acceptor labels being close together.)
For orientation: IC50 means the midpoint of a concentration-inhibition curve. As to `CC1(C)CC(=O)c2c([nH]c(-c3ccnc(NC(=O)C(C)(C)F)c3)c2Nc2ccccc2)C1` [Example 475, N-{4-[6,6-dimethyl-4-oxo-3-(phenylamino)-4,5,6,7-tetrahydro-1H-indol-2-yl]pyridin-2-yl}-2-fluoro-2-methylpropanamide], the 50% inhibitory concentration (IC50) stood at 38.7 nM. Then `CCC1CC(=O)c2c([nH]c(-c3ccncc3)c2Nc2ccccc2)C1` (centres unmarked) [Example 28, 6-ethyl-3-(phenylamino)-2-(pyridin-4-yl)-1,5,6,7-tetrahydro-4H-indol-4-one], with 5.93 nM.

In the case of `CC1(C)CC(=O)c2c([nH]c(-c3ccnc(NC(=O)c4cnn(C(C)(C)C)c4)c3)c2Nc2ccccc2)C1` [Example 472, 1-tert-butyl-N-{4-[6,6-dimethyl-4-oxo-3-(phenylamino)-4,5,6,7-tetrahydro-1H-indol-2-yl]pyridin-2-yl}-1H-pyrazole-4-carboxamide], the IC50 worked out at 5.04 nM. With `O=C(Nc1cc(-c2[nH]c3c(c2Nc2ccccc2)C(=O)CCC3)ccn1)c1cscn1` [Example 271, N-{4-[4-oxo-3-(phenylamino)-4,5,6,7-tetrahydro-1H-indol-2-yl]pyridin-2-yl}-1,3-thiazole-4-carboxamide] the figure was 7.64 nM.

Regarding `O=C1CCCc2[nH]c(-c3ccnc(NCCc4ccccc4)c3)c(Nc3ccccc3)c21` [Example 489, 3-(phenylamino)-2-{2-[(2-phenylethyl)amino]pyridin-4-yl}-1,5,6,7-tetrahydro-4H-indol-4-one], the IC50 worked out at 3320 nM. With `CC(C)CC1CC(=O)c2c([nH]c(-c3ccncc3)c2Nc2ccccc2)C1` (centres unmarked) [Example 29, 6-(2-methylpropyl)-3-(phenylamino)-2-(pyridin-4-yl)-1,5,6,7-tetrahydro-4H-indol-4-one] the figure was 6.17 nM; with `CCOC(C)(C)C(=O)Nc1cc(-c2[nH]c3c(c2Nc2ccccc2)C(=O)CCC3)ccn1` [Example 328], 524 nM; with `Cc1ccccc1Nc1c(-c2ccncc2)[nH]c2c1C(=O)CC(C)(C)C2` [Example 53, 6,6-dimethyl-3-[(2-methylphenyl)amino]-2-(pyridin-4-yl)-1,5,6,7-tetrahydro-4H-indol-4-one], 82.2 nM. With `O=C1CCCc2[nH]c(-c3ccnc(NCc4ccccc4)c3)c(Nc3ccccc3)c21` [Example 366, 2-[2-(benzylamino)pyridin-4-yl]-3-(phenylamino)-1,5,6,7-tetrahydro-4H-indol-4-one] the figure was 1660 nM; with `O=C1CCCc2[nH]c(-c3ccnc(NC(=O)C4C[C@H]4F)c3)c(Nc3ccccc3)c21` (mixture of isomers) [Example 252, rel-(S,S/R,R)-2-fluoro-N-{4-[4-oxo-3-(phenylamino)-4,5,6,7-tetrahydro-1H-indol-2-yl]pyridin-2-yl}cyclopropanecarboxamide], 16.6 nM.

With `O=C1CC(CCl)Cc2[nH]c(-c3ccncc3)c(Nc3ccccc3)c21` (centres unmarked) [Example 443, 6-(chloromethyl)-3-(phenylamino)-2-(pyridin-4-yl)-1,5,6,7-tetrahydro-4H-indol-4-one], the IC50 stood at 5.05 nM. Regarding `O=C1CCCc2[nH]c(-c3ccncc3)c(Nc3ccc(F)c(F)c3)c21` [Example 134, 3-[(3,4-difluorophenyl)amino]-2-(pyridin-4-yl)-1,5,6,7-tetrahydro-4H-indol-4-one], the half-inhibitory concentration (IC50) came to 49.7 nM.

On to `Cn1cc(NC(=O)Nc2cc(-c3[nH]c4c(c3Nc3ccccc3)C(=O)CCC4)ccn2)cn1` [Example 390, 1-(1-methyl-1H-pyrazol-4-yl)-3-{4-[4-oxo-3-(phenylamino)-4,5,6,7-tetrahydro-1H-indol-2-yl]pyridin-2-yl}urea], for which the IC50 is 3.96 nM. With `O=C(COc1ccsc1Cl)Nc1cc(-c2[nH]c3c(c2Nc2ccccc2)C(=O)CCC3)ccn1` [Example 345, 2-[(2-chlorothiophen-3-yl)oxy]-N-{4-[4-oxo-3-(phenylamino)-4,5,6,7-tetrahydro-1H-indol-2-yl]pyridin-2-yl}acetamide] the figure was 72.5 nM.
